Data as given in the supplement of paper PMC9663587.

Assays:
Experiment in all cases: area over the GR curve, 72 h; higher = more effect;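 further: Dye Drop or Deep Dye Drop imaging of viable cells in 384-well plates (Hoechst nuclei, LIVE/DEAD dye), nine half-log doses, GR normalized to DMSO controls and time-zero plates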
[1] = tested on: BT20
[2] = tested on: BT549
[3] = tested on: CAL51
[4] = tested on: CAL851
[5] = tested on: CAMA1
[6] = tested on: HCC1954
[7] = tested on: HCC38
[8] = tested on: MDAMB330
[9] = tested on: PDX1328
[10] = tested on: SUM149

SMILES | area over the GR curve [1] | area over the GR curve [2] | area over the GR curve [3] | area over the GR curve [4] | area over the GR curve [5] | area over the GR curve [6] | area over the GR curve [7] | area over the GR curve [8] | area over the GR curve [9] | area over the GR curve [10]
Cc1cc(C(C)Nc2ccccc2)c2nc(N3CCOCC3)cc(=O)n2c1 (stereo not given) [TGX221] (max 10 µM) | -0.0612 GR | 0.0568 GR | -0.0117 GR | -0.0591 GR | 0.0019 GR | -0.0656 GR | -0.0299 GR | -0.0042 GR | 0.0318 GR | -0.0254 GR
CN(C)C/C=C/C(=O)Nc1ccc(C(=O)Nc2cccc(Nc3ncc(Cl)c(-c4c[nH]c5ccccc45)n3)c2)cc1 [THZ1] (max 1 µM) | 0.108 GR | 0.381 GR | 0.161 GR | 0.639 GR | 0.459 GR | 0.31 GR | 0.525 GR | 0.86 GR | 0.483 GR | 0.425 GR
CN(C)C/C=C/C(=O)Nc1ccc(C(=O)N2CCC[C@@H](Nc3ncc(Cl)c(-c4c[nH]c5ccccc45)n3)C2)cc1 [THZ531] (max 1 µM) | 0.0416 GR | 0.174 GR | 0.0896 GR | 0.36 GR | 0.241 GR | 0.143 GR | 0.223 GR | 0.747 GR | 0.418 GR | 0.154 GR
CN(C)C/C=C/C(=O)Nc1ccc(C(=O)Nc2cccc(Nc3cc(-c4c[nH]c5ccccc45)ncn3)c2)cc1 [THZ-P1-2] (max 10 µM) | 0.137 GR | 0.124 GR | 0.0155 GR | 0.217 GR | 0.309 GR | 0.114 GR | 0.181 GR | 0.592 GR | 0.0529 GR | 0.117 GR
Cc1nc(-c2cn3c(n2)-c2ccc(-c4cnn(C(C)(C)C(N)=O)c4)cc2OCC3)n(C(C)C)n1 [Taselisib/GDC0032] (max 10 µM) | 0.736 GR | 0.223 GR | 0.546 GR | 0.55 GR | 0.245 GR | 0.949 GR | 0.202 GR | 1.15 GR | 0.576 GR | 0.205 GR
O=C1NC(=O)[C@@H](c2cn3c4c(cccc24)CCC3)[C@@H]1c1c[nH]c2ccccc12 [Tivantinib/ARQ197] (max 10 µM) | 0.416 GR | 0.344 GR | 0.359 GR | 0.518 GR | 0.526 GR | 0.544 GR | 0.436 GR | 0.368 GR | 0.528 GR | 0.446 GR
Nc1ccc(-c2ccc3ncc4ccc(=O)n(-c5cccc(C(F)(F)F)c5)c4c3c2)cn1 [Torin2] (max 1 µM) | 0.536 GR | 0.49 GR | 0.456 GR | 0.54 GR | 0.507 GR | 0.55 GR | 0.538 GR | 0.879 GR | 0.643 GR | 0.255 GR
CC[C@@H]1C(=O)N(C)c2cnc(Nc3ccc(C(=O)N[C@H]4CC[C@H](N5CCN(CC6CC6)CC5)CC4)cc3OC)nc2N1C(C)C [Volasertib/BI6727] (max 1 µM) | 0.79 GR | 0.568 GR | 0.679 GR | 0.717 GR | 0.674 GR | 0.611 GR | 0.59 GR | 0.778 GR | 0.842 GR | 0.569 GR
O=C(CCCCCCC(=O)Nc1ccccc1)NO [Vorinostat] (max 10 µM) | 0.151 GR | 0.189 GR | 0.186 GR | 0.201 GR | 0.383 GR | 0.234 GR | 0.284 GR | 0.271 GR | 0.36 GR | 0.225 GR
C=CC(=O)Nc1ccc(C(=O)Nc2[nH]nc3c2CN(C(=O)N[C@H](CN(C)C)c2ccccc2)C3(C)C)cc1 [YKL-5-124] (max 10 µM) | 0.693 GR | 0.869 GR | 0.655 GR | 1.2 GR | 0.968 GR | 0.969 GR | 0.928 GR | 0.925 GR | 0.532 GR | 0.875 GR
CN1CCN(C(=O)c2ccc3cc(CCNc4ncnc5ccc(C#N)cc45)ccc3c2)CC1 [senexin b] (max 10 µM) | 0.275 GR | 0.181 GR | 0.119 GR | 0.226 GR | 0.351 GR | 0.327 GR | 0.152 GR | 0.146 GR | 0.0976 GR | 0.129 GR
